These results are taken from BindingDB's records for doi:10.1038/nchembio.2007.34 (GlaxoSmithKline, 2007).

Structures are written as SMILES. pKi: −log10 of the molar value.

This test deals with T1, Kinesin-like protein KIF11 (Homo sapiens, UniProt P52732).
T1 sequence (P52732 whole entry): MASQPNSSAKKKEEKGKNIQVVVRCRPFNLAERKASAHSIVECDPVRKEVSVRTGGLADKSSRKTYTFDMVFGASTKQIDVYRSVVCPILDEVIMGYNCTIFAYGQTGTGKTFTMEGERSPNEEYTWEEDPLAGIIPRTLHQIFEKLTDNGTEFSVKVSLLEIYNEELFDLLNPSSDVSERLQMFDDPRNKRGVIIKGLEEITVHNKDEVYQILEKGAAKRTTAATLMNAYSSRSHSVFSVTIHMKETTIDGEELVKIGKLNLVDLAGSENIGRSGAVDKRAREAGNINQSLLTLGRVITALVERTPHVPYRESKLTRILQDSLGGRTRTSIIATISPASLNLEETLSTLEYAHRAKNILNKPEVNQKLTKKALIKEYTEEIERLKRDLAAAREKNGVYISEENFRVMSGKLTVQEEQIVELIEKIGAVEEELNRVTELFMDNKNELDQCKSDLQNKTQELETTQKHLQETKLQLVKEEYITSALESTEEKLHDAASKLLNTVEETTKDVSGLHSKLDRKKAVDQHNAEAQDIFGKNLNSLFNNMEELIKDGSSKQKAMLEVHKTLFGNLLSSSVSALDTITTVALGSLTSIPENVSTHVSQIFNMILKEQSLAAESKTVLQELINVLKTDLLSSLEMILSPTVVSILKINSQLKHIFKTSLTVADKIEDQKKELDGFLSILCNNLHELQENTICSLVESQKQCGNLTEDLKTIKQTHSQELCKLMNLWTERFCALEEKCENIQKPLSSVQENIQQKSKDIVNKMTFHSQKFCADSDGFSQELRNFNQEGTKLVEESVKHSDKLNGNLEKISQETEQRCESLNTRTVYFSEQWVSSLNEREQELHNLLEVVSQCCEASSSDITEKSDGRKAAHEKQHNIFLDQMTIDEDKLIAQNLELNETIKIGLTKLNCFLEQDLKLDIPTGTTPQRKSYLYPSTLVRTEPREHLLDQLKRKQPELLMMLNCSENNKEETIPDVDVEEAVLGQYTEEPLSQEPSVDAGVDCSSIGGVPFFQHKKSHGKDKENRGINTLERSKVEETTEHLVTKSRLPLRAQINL
Kind of test: Wild-type HCT116. The conditions noted are these: pH 6.8. The source says: Cell proliferation assay for wild-type cells

`O=C1CCc2cc(-c3ccc(C(F)(F)F)cc3)ccc2N1` [6-[4-(Trifluoromethyl)phenyl]-3,4-dihydro-2(1H)-quinolinone]: the pKi was 8.77.
